Measured values as given in patent US20210179680A1, “POLYPEPTIDE, DERIVATIVES THEREOF, AND APPLICATION THEREOF IN PREPARATION OF DRUGS HAVING RESISTANCE TO PULMONARY FIBROSIS” (priority 2016, published 2021).
Bridge positions count the residues as written; N and C are the ends. Square brackets hold non-standard residues; d marks the D form. Peptide text beside a SMILES is read from it. S5 = C=CCCC[C@](C)(N)C(=O)O

Columns and labels:
[1] = molecular target: T1, TRB3/MDM2 protein interaction (Homo sapiens, UniProt Q96RU7); assay: Co-immunoprecipitation: inhibition of binding of MDM2 to TRB3 in BEAS-2B cells; assay type: cell-based; details: BEAS-2B cells with TRB3 expression plasmid, 1 mg/mL polypeptide, 12 hours, co-IP with MDM2 antibody
T1 construct: host or cells: BEAS-2B
T1 sequence (Q96RU7 1-358): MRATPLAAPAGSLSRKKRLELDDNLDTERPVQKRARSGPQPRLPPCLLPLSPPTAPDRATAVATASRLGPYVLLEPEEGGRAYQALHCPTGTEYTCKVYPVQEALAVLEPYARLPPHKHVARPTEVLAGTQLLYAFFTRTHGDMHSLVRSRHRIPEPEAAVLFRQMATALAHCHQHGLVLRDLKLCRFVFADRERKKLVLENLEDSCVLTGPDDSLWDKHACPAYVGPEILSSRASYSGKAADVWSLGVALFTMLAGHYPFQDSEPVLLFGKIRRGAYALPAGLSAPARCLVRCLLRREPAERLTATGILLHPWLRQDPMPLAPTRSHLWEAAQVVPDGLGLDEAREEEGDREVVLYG
Method: 1. Human lung epithelial BEAS-2B cells (purchased from Institute of Basic Medical Sciences, Chinese Academy of Medical Sciences) were seeded in a 90 mm^2 culture dish. After the cells were adhered to the wall of culture dish, the TRB3 expression plasmid were transferred to the cells according to the method described in Example 5. After 24 hours, 1 mg/mL of the polypeptides MR2, S1, S2, S3, S4, S5, S6, S7, S8, S9, S10 or S11 prepared in Example 1 were added respectively, and the cells were incubated for 12 hours in a 37° C. incubator and then harvested.
2. Co-immunoprecipitation with MDM2 antibody was performed according to the method described in Example 3, followed by detection using TRB3 antibody.

TRB3 protein = molecular target: T2, TRB3 protein (Homo sapiens, UniProt Q96RU7); assay: Surface plasmon resonance (Biacore T200) binding of polypeptides to TRB3 protein; details: SPR, FIG. 4-1, 4-2 and Table 1
T2 construct: purchased RD
T2 sequence (Q96RU7 1-358): T1 sequence (Q96RU7 1-358)
Method: The surface plasmon resonance experiment was carried out in a surface plasmon resonator Biacore T200, and the procedure was carried out in accordance with the instructions of the plasma resonator Biacore T200. Specific steps are as follows:
1. Purified TRB3 protein (purchased from RD) was coupled to a CMS chip (purchased from GE) by amidogen, and the unbound protein was eluted at a flow rate of 10 μL/min. The surface of the chip was equilibrated for 2 hours. Among them, the specific steps of amidogen coupling, elution and equilibration refer to the relevant instruction of GE's CMS chip.
2. 250 μL of the S1-S11 and MR2 polypeptide fragments prepared in Example 1 with different concentrations (800, 400, 200, 50, 12.5, 6.25, and 3.125 nM) were automatically injected, and the entire surface plasmon resonance experiment was carried out at 25° C. The buffer used was HBS-EP buffer [0.01 M HEPES, 0.15 M NaCl, 3 mM EDTA and 0.005% (w/w) surfactant TWEEN20]. Biacore T200's built-in analysis software was used to simulate the binding curves of different concentrations of peptides to TRB3.

[2] = system: mice with bleomycin-induced pulmonary fibrosis; assay: Survival rate of mice with bleomycin-induced pulmonary fibrosis; assay type: in vivo, C57BL/6 mice; details: twice a week
Method: Male C57BL/6 mice were fasted overnight, then anesthetized with 45 mg/kg sodium pentobarbital by injection intraperitoneally (i.p.), and intratracheally injected with bleomycin at a dose of 3 U/kg. The specific operation steps are as follows: cut the neck skin of the mouse with as little trauma as possible, expose the trachea with the assistance of elbow ophthalmic forceps, puncture the trachea and inject about 50 μL of bleomycin into the trachea with a microsyringe, rotate the mouse quickly and stand it upright for 5 minutes in order to make bleomycin evenly enter the left and right lobe, thereby constructing an animal model. The whole operation was performed at a surgical table at about […]. Mice in the sham operation group were intratracheally injected with an equal amount of physiological saline for injection.
The animal model with pulmonary fibrosis was prepared according to the method described in Example 2. The peptide therapy was started from the 10th day after modeling (the treatment groups are shown in Table 3), and the time was calculated from the 10th day after modeling to count the mortality rate. The death situation of each group of experimental animals was counted and calculated daily. […] The survival rate is the percentage of the number of mice that survived accounting for the number of mice in the whole group. Results are shown in FIG. 6-1, FIG. 6-2 and Table 4. […] In FIG. 6-1 and FIG. 6-2, “##” represents that P value is less than 0.01 when the survival rate of administration group was compared with that of the sham operation group; “*” represents that P value is less than 0.05 when the survival rate of administration group was compared with that of the bleomycin group; “**” represents that P value is less than 0.01 when the survival rate of administration group was compared with that of bleomycin group; and “i.p.” refers to intraperitoneal injection.
The animal model of pulmonary fibrosis was prepared according to the method described in Example 2. The polypeptide treatment was started from the 10th day after modeling (the treatment groups are shown in Table 9), and the time was calculated from the 10th day after modeling to count the mortality rate. The mortality rate of each group of experimental animals was recorded and calculated daily. If none of the animals in a group died, the survival rate of the group is 100%. If all the animals in a group died, the survival rate is 0%. […] In FIG. 12, “##” represents that P value is less than 0.01 when the survival rate of the administration groups were compared with that of the sham operation group; “*” represents that P value is less than 0.05 and “**” represents that P value is less than 0.01 when the survival rate of the administration groups were compared with bleomycin group.

[3] = Table 3 groups: 2 mg/kg i.p., 10th to 28th day after modeling
[4] = Table 9 groups (S19-S21): 2 mg/kg i.p., 10th to 28th day after modeling
[5] = Table 9 groups (S19-S21): 2 mg/kg i.p.

| Compound | interaction of TRB3 and MDM2 protein (FIG. 5, in words) [1] | interaction with the TRB3 protein (in words) (TRB3 protein) | Survival rate (%) 7 days [2, 3] | Survival rate (%) 14 days [2, 3] | Survival rate (%) 21 days [2, 3] | Survival rate (%) 28 days [2, 3] | Survival rate (%) 7 days [2, 4] | Survival rate (%) 14 days [2, 5] | Survival rate (%) 21 days [2, 5] | Survival rate (%) 28 days [2, 5] |
| --- | --- | --- | --- | --- | --- | --- | --- | --- | --- | --- |
| CSCC[C@H](NC(=O)[C@H](CC(C)C)NC(=O)[C@@H](N)Cc1c[nH]cn1)C(=O)N[C@@H](C)C(=O)N[C@@H](CS)C(=O)N[C@@H](Cc1ccccc1)C(=O)N[C@H](C(=O)N[C@@H](CS)C(=O)N[C@@H](C)C(=O)N[C@@H](CCCCN)C(=O)N[C@@H](CCCCN)C(=O)N[C@@H](CC(C)C)C(=O)N[C@@H](CCCCN)C(=O)N[C@@H](CCCCN)C(=O)N[C@@H](CCCNC(=N)N)C(=O)O)[C@@H](C)O [MR2] (H-HLMACFTCAKKLKKR-OH; N-terminus and C-terminus assumed) | interrupted | interacted with the TRB3 protein | 100% | 93.33% | 73.33% | 66.67% |  |  |  |  |
| CSCC[C@@H]1NC(=O)[C@H](CC(C)C)NC(=O)[C@@](C)(N)CCCC=CCCC[C@@](C)(C(=O)N[C@@H](Cc2ccccc2)C(=O)N[C@H](C(=O)N[C@@H](CS)C(=O)N[C@@H](C)C(=O)N[C@@H](CCCCN)C(=O)N[C@@H](CCCCN)C(=O)N[C@@H](CC(C)C)C(=O)N[C@@H](CCCCN)C(=O)N[C@@H](CCCCN)C(=O)N[C@@H](CCCNC(=N)N)C(=O)O)[C@@H](C)O)NC(=O)[C@H](C)NC1=O [S1, S5-Leu-Met-Ala-S5-Phe-Thr-Cys-Ala-Lys-Lys-Leu-Lys-Lys-Arg] (H-[S5]LMA[S5]FTCAKKLKKR-OH; staple 1-5; N-terminus and C-terminus assumed) | interrupted | interacted with the TRB3 protein | 100% | 86.67% | 80% | 80% |  |  |  |  |
| CSCC[C@@H]1NC(=O)[C@@](C)(NC(=O)[C@@H](N)Cc2c[nH]cn2)CCCC=CCCC[C@@](C)(C(=O)N[C@H](C(=O)N[C@@H](CS)C(=O)N[C@@H](C)C(=O)N[C@@H](CCCCN)C(=O)N[C@@H](CCCCN)C(=O)N[C@@H](CC(C)C)C(=O)N[C@@H](CCCCN)C(=O)N[C@@H](CCCCN)C(=O)N[C@@H](CCCNC(=N)N)C(=O)O)[C@@H](C)O)NC(=O)[C@H](CS)NC(=O)[C@H](C)NC1=O [S2, His-S5-Met-Ala-Cys-S5-Thr-Cys-Ala-Lys-Lys-Leu-Lys-Lys-Arg] (H-H[S5]MAC[S5]TCAKKLKKR-OH; staple 2-6; N-terminus and C-terminus assumed) | interrupted | interacted with the TRB3 protein | 100% | 100% | 80% | 80% |  |  |  |  |
| CC(C)C[C@H](NC(=O)[C@H](CCCCN)NC(=O)[C@H](CCCCN)NC(=O)[C@H](C)NC(=O)[C@H](CS)NC(=O)[C@]1(C)CCCC=CCCC[C@](C)(NC(=O)[C@H](CC(C)C)NC(=O)[C@@H](N)Cc2c[nH]cn2)C(=O)N[C@@H](C)C(=O)N[C@@H](CS)C(=O)N[C@@H](Cc2ccccc2)C(=O)N1)C(=O)N[C@@H](CCCCN)C(=O)N[C@@H](CCCCN)C(=O)N[C@@H](CCCNC(=N)N)C(=O)O [S3, His-Leu-S5-Ala-Cys-Phe-S5-Cys-Ala-Lys-Lys-Leu-Lys-Lys-Arg] (H-HL[S5]ACF[S5]CAKKLKKR-OH; staple 3-7; N-terminus and C-terminus assumed) | interrupted | interacted with the TRB3 protein | 100% | 93.33% | 86.67% | 86.67% |  |  |  |  |
| CSCC[C@H](NC(=O)[C@H](CC(C)C)NC(=O)[C@@H](N)Cc1c[nH]cn1)C(=O)N[C@@]1(C)CCCC=CCCC[C@@](C)(C(=O)N[C@@H](C)C(=O)N[C@@H](CCCCN)C(=O)N[C@@H](CCCCN)C(=O)N[C@@H](CC(C)C)C(=O)N[C@@H](CCCCN)C(=O)N[C@@H](CCCCN)C(=O)N[C@@H](CCCNC(=N)N)C(=O)O)NC(=O)[C@H]([C@@H](C)O)NC(=O)[C@H](Cc2ccccc2)NC(=O)[C@H](CS)NC1=O [S4, His-Leu-Met-S5-Cys-Phe-Thr-S5-Ala-Lys-Lys-Leu-Lys-Lys-Arg] (H-HLM[S5]CFT[S5]AKKLKKR-OH; staple 4-8; N-terminus and C-terminus assumed) | interrupted | interacted with the TRB3 protein | 100% | 86.67% | 80% | 80% |  |  |  |  |
| S19: chimeric polypeptide Pep2-MR2, amino acid sequence SEQ ID NO: 19 (HLYVSPWGGHLMACFTCAKKLKKR; chimeric polypeptide Pep2-MR2 S19) |  |  |  |  |  |  | 100% | 100% | 90% | 90% |
| S20: chimeric polypeptide TAT-MR2, amino acid sequence SEQ ID NO: 20 (YGRKKRRQRRRGGHLMACFTCAKKLKKR; chimeric polypeptide TAT-MR2 S20) |  |  |  |  |  |  | 100% | 91.67% | 75% | 75% |
| S21: chimeric polypeptide Antp-MR2, amino acid sequence SEQ ID NO: 21 (RQIKIWFQNRRMKWKKGGHLMACFTCAKKLKKR; chimeric polypeptide Antp-MR2 S21) |  |  |  |  |  |  | 100% | 100% | 75% | 75% |
